The target of the test is T1, Exon1-Q46 protein aggregates (MBP-HTT(1-89)Q46-His(6×)) (Homo sapiens, UniProt P42858, INS38QQQQQQQQQQQQQQQQQQQQQQQQQ).
T1 construct: MBP-HTT(1-89)Q46-His(6×); MBP (N, cleaved yes); His(6×) (C); made in house
The test can be described thus: Exon1-Q46 radioligand binding assay (RBA). To be noted: displacement of 0.3 nM [3H3-methyl]-5-((5-methoxypyridin-2-yl)methoxy)-2-(pyrazin-2-yl)benzo[d]oxazole; 1 μM Exon1-Q46 aggregates; read-out: Potency Range. The procedure: Exon1-Q46 Radioligand Binding Assay
For radioligand binding assays (RBA), MBP-HTT(1-89)Q46-His(6×) (“Exon1-Q46”) protein was generated based on a previous publication (Scherzinger et al. Cell, Vol. 90, 549-558, Aug. 8, 1997). For experiments, 30 μM MBP-Exon1-Q46 was incubated with 150 μg/mL thrombin in assay buffer (150 mM NaCl, 50 mM Tris pH 8.0) and 2 mM CaCl2 for 16 hours at 37° C. Aggregated Exon1-Q46 was pelleted by centrifugation for 5 minutes at 13,000 rpm in a bench top centrifuge and re-dissolved in the same volume of assay buffer. Test compounds were prepared by titration in DMSO at 11 concentrations from 63 μM to 2 nM. For the RBA, Exon1-Q46 protein aggregates and test compounds were pre-incubated in assay buffer for 20 minutes at room temperature, in 100 μL/well in a 96-well plate (pp, round bottom). Then, ligand was added in 50 µL/well and incubated for 60 minutes at 37° C. Final assay concentrations were […] test compound, 1 μM Exon1-Q46 protein (equivalent monomer concentration), and 0.3 nM ligand [^3H3-methyl]-5-((5-methoxypyridin-2-yl)methoxy)-2-(pyrazin-2-yl)benzo[d]oxazole. Samples were transferred onto GF/B filter plates and washed 2× with 200 μL PBS using a Filtermate Harvester. After drying filter plates for 1 hour at 55° C., the back of the plates were sealed with foil and 30 μL/well scintillation fluid (Packard MicroScint 40) added, incubated for 15 minutes in the dark, and counted in a MicroBeta reader. For analysis, replicate data from independent assay plates were normalized towards 0% and 100% inhibition using control wells of vehicle (0% inhibition) and […] unlabelled [^3H3-methyl]-5-((5-methoxypyridin-2-yl)methoxy)-2-(pyrazin-2-yl)benzo[d]oxazole (100% inhibition). IC50 values were determined with a sigmoidal inhibition model with four variables (top, bottom, slope, IC50) in a global fit using the normalized replicate data.
The results for various example compounds were as provided in the table below (+++<100 nM; ++100-500 nM; +>500 nM; ND: not determined): […]

T1 sequence (P42858 with tags, fused parts or gaps with the stated changes limits assumed): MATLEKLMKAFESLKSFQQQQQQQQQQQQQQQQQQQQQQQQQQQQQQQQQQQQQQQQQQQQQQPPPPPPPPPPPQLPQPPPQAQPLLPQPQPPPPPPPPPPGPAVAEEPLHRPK

`COc1cnc(COc2cnc3oc(-c4cc(C)ncn4)nc3c2)c(F)c1` [Compound 1-3, 6-((3-Fluoro-5-methoxypyridin-2-yl)methoxy)-2-(6-methylpyrimidin-4-yl)oxazolo[5,4-b]pyridine]: the IC50 is less than 100 nM.

For `COc1ccc(COc2cnc3oc(-c4cc(C)ncn4)nc3c2)nc1` [Compound 4-1, 4-{6-[(5-Methoxypyridin-2-yl)methoxy]-[1,3]oxazolo[5,4-b]pyridin-2-yl}-6-methylpyrimidine], the IC50 was less than 100 nM.

For the molecule `COc1ccc(COc2cnc3oc(-c4ccnc(C)n4)nc3c2)nc1` [Compound 2-1], the IC50 was less than 100 nM.

Turning to `[2H]C([2H])(F)C([2H])([2H])Oc1ccc(COc2cnc3oc(-c4cc(C)ncn4)nc3c2)nc1` [Compound 1-1, 6-((5-(2-Fluoroethoxy-1,1,2,2-d4)pyridin-2-yl)methoxy)-2-(6-methyl-pyrimidin-4-yl)oxazolo[5,4-b]pyridine], the IC50 was less than 100 nM.

Consider `Cc1cc(-c2nc3cc(OCc4ccc(OCCF)cn4)cnc3o2)ncn1` [Compound 5-1, 6-((5-(2-Fluoroethoxy)pyridin-2-yl)methoxy)-2-(6-methylpyrimidin-4-yl) oxazolo[5,4-b]pyridine], for which the IC50 was less than 100 nM.

As to `COc1ccc(COc2cnc3oc(-c4cc(OCCF)ncn4)nc3c2)nc1` [Compound 3-1, 4-(2-Fluoroethoxy)-6-{6-[(5-methoxypyridin-2-yl)methoxy]-[1,3]oxazolo[5,4-b]pyridin-2-yl}pyrimidine], the IC50 was less than 100 nM.

With `Cc1ccc(S(=O)(=O)OCCOc2ccc(COc3cnc4oc(-c5cc(C)ncn5)nc4c3)nc2)cc1` [Compound 1-2, 2-((6-(((2-(6-Methylpyrimidin-4-yl)oxazolo[5,4-b]pyridin-6-yl)oxy)-methyl)pyridin-3-yl)oxy)ethyl 4-methylbenzenesulfonate], the IC50 is less than 100 nM.

Regarding `Cc1cc(-c2nc3cc(OCc4ccc(OCF)cn4)cnc3o2)ncn1` [Compound 5-3, 6-((5-(Fluoromethoxy)pyridin-2-yl)methoxy)-2-(6-methylpyrimidin-4-yl) oxazolo[5,4-b]pyridine], the IC50 is less than 100 nM.

On to `C=CCOc1ccc(COc2cnc3oc(-c4cc(C)ncn4)nc3c2)nc1` [Compound 5-2, 6-((5-(Allyloxy)pyridin-2-yl)methoxy)-2-(6-methylpyrimidin-4-yl) oxazolo[5,4-b]pyridine], for which the IC50 is less than 100 nM.

(Values after patent US12606570B2, “Deuterated compounds and imaging agents for imaging huntingtin protein” (CHDI Foundation, Inc., priority 2021, dated 2026).)
